Reference: US9737610B2 (priority 2010, dated 2017)
Entries after “also recorded” stand apart in the source; their conditions may differ.

What was measured:
[1] = Dog pharmacokinetics of API, amorphous and solid dispersion capsules, cross-over; design: species or system male beagle dogs; conditions: male, beagle, in vivo, po, 2200 mg
Description: Presented herein are dog pharmacokinetics (PK) studies comparing various forms of rifaximin. […] In the SD dosage form, the polymer used was HPMC-AS at a drug to polymer ratio of 50:50. The formulation also comprised pluronic F127 and crosscarmellose sodium (see Example 4). […] Blood was collected at timed intervals for 24 h after dosage administration, and plasma was harvested for LC-MS/MS analysis.

in vivo = conditions: dog, po, 2200 mg
[2] = Physical stability assessment in 0.1N HCl at 37° C. (PLM); type: physicochemical
Description: For the assessment of physical stability for samples in a 0.1N HCl solution maintained at 37° C., observations were made and microscopy images were acquired using polarized light at different time points including 0, 6 and 24 hrs, as summarized in Table 6. Based on the absence of birefringent particles when samples were observed by PLM, dispersions prepared with HPMC-AS HG and HPMC-AS MG display the highest physical stability under this particular stress condition.

[3] = Physical stability assessment at 40° C./75% RH for 7 d (PLM, mDSC); type: physicochemical; conditions: after 40° C./75% RH for 7 d
Description: Each of the samples remained as irregular aggregates without birefringence/extinctions after stressed at 40° C./75% RH condition for 7 days. […] All of samples display a single apparent Tg at approximately 148° C.

[4] = Physical stability assessment at 60° C./dry for 7 d (PLM); type: physicochemical; conditions: after 60° C./dry for 7 d
Text: Each of the samples remained as irregular aggregates without birefringence/extinctions after stressed at this condition for 7 days.

SMILES	AUCINF_obs, mean [1] [ng·h/mL]	AUC_0-24, mean [1] [ng·h/mL]	AUClast, mean [1] [ng·h/mL]	Half-life, geometric mean [1] [h]	Tmax [1] [h]	mean exposure (AUCinf) as compared with API [1] [fold]	AUC (in vivo) [ng·h/mL]	AUC(0-inf) (in vivo) [ng·h/mL]	Cmax (in vivo) [ng/mL]	Tmax (in vivo) [h]	Cmax, mean [1] [ng/mL]	half-life ([1]; Half-life, geometric mean) [h]	Tmax ([1]; Tmax, median) [h]	PLM results ([2]; 6 hrs)	PLM results ([2]; 24 hrs)	time at which crystallization (birefringence/extinctions) was observed ([2]; PLM) [h]	PLM results ([2]; time 0)	PLM results [3]	PLM results [4]
CO[C@H]1/C=C/O[C@@]2(C)Oc3c(C)c(O)c4c(O)c(c5c(nc6cc(C)ccn65)c4c3C2=O)NC(=O)/C(C)=C\C=C\[C@H](C)[C@H](O)[C@@H](C)[C@@H](O)[C@@H](C)[C@H](OC(C)=O)[C@@H]1C [amorph, Rifaximin]	4027	3908	3908	5.88	1	~40	3910	4030	1390	2	–	–	–	–	–	–	–	–	–
CO[C@H]1/C=C/O[C@@]2(C)Oc3c(C)c(O)c4c(O)c(c5c(nc6cc(C)ccn65)c4c3C2=O)NC(=O)/C(C)=C\C=C\[C@H](C)[C@H](O)[C@@H](C)[C@@H](O)[C@@H](C)[C@H](OC(C)=O)[C@@H]1C [API, Rifaximin]	104	82	81	–	–	–	–	–	–	–	44.93	6.98	1	–	–	–	–	–	–
CO[C@H]1/C=C/O[C@@]2(C)Oc3c(C)c(O)c4c(O)c(c5c(nc6cc(C)ccn65)c4c3C2=O)NC(=O)/C(C)=C\C=C\[C@H](C)[C@H](O)[C@@H](C)[C@@H](O)[C@@H](C)[C@H](OC(C)=O)[C@@H]1C [(100:0) Rifaximin-only, Rifaximin]	–	–	–	–	–	–	–	–	–	–	–	–	–	clear view of B/E particles; also recorded: agg., no B/E + a few B/E particles	agg., no B/E + a few B/E particles	6	agg., irr., no B/E	agg., irr., no B/E	agg., irr., no B/E
